Measurements from patent US8912198B2, “Compounds useful as inhibitors of ATR kinase” (Vertex Pharmaceuticals Incorporated, priority 2012, dated 2014).

Assays:
intracellular ATR = target: T1, intracellular ATR (Homo sapiens, UniProt Q13535); test: Cellular ATR inhibition assay, H2AX phosphorylation in hydroxyurea treated HT29 cells; format: cell-based; settings: 2 mM hydroxyurea, phosphorylated H2AX Ser139 positive nuclei
T1 construct: endogenous in cells; host or cells: HT29
Method: Compounds can be screened for their ability to inhibit intracellular ATR using an immunofluorescence microscopy assay to detect phosphorylation of the ATR substrate histone H2AX in hydroxyurea treated cells. HT29 cells are plated at 14,000 cells per well in 96-well black imaging plates (BD 353219) in McCoy's 5A media (Sigma M8403) supplemented with 10% foetal bovine serum (JRH Biosciences 12003), Penicillin/Streptomycin solution diluted 1:100 (Sigma P7539), and 2 mM L-glumtamine (Sigma G7513), and allowed to adhere overnight at 37° C. in 5% CO2. Compounds are then added to the cell media from a final concentration of 25 μM in 3-fold serial dilutions and the cells are incubated at 37° C. in 5% CO2. After 15 min, hydroxyurea (Sigma H8627) is added to a final concentration of 2 mM.
After 45 min of treatment with hydroxyurea, the cells are washed in PBS, fixed for 10 min in 4% formaldehyde diluted in PBS (Polysciences Inc 18814), washed in 0.2% Tween-20 in PBS (wash buffer), and permeabilised for 10min in 0.5% Triton X-100 in PBS, all at room temperature. The cells are then washed once in wash buffer and blocked for 30 min at room temperature in 10% goat serum (Sigma G9023) diluted in wash buffer (block buffer). To detect H2AX phosphorylation levels, the cells are then incubated for 1 h at room temperature in primary antibody (mouse monoclonal anti-phosphorylated histone H2AX Ser139 antibody; Upstate 05-636) diluted 1:250 in block buffer. The cells are then washed five times in wash buffer before incubation for lh at room temperature in the dark in a mixture of secondary antibody (goat anti-mouse Alexa Fluor 488 conjugated antibody; Invitrogen A11029) and Hoechst stain (Invitrogen H3570); diluted 1:500 and 1:5000, respectively, in wash buffer. The cells are then washed five times in wash buffer and finally 100 ul PBS is added to each well before imaging.
Cells are imaged for Alexa Fluor 488 and Hoechst intensity using the BD Pathway 855 Bioimager and Attovision software (BD Biosciences, Version 1.6/855) to quantify phosphorylated H2AX Ser139 and DNA staining, respectively. The percentage of phosphorylated H2AX-positive nuclei in a montage of 9 images at 20× magnification is then calculated for each well using BD Image Data Explorer software (BD Biosciences Version 2.2.15). Phosphorylated H2AX-positive nuclei are defined as Hoechst-positive regions of interest containing Alexa Fluor 488 intensity at 1.75-fold the average Alexa Fluor 488 intensity in cells not treated with hydroxyurea. The percentage of H2AX positive nuclei is finally plotted against concentration for each compound and IC50s for intracellular ATR inhibition are determined using Prism software (GraphPad Prism version 3.0cx for Macintosh, GraphPad Software, San Diego Calif., USA).

[1] = test system: HCT116 colorectal cancer cells; test: Single agent HCT116 activity, 96 h cell viability (MTS) assay; format: cell-based; settings: Homo sapiens, HCT-116; 96 h MTS cell viability, compound alone; read-out: Single agent HT116 IC50
Method: Compounds can be screened for single agent activity against HCT116 colorectal cancer cells using a 96 h cell viability (MTS) assay. HCT116 are plated at 470 cells per well in 96-well polystyrene plates (Costar 3596) in 150 μl of McCoy's 5A media (Sigma M8403) supplemented with 10% foetal bovine serum (JRH Biosciences 12003), Penicillin/Streptomycin solution diluted 1:100 (Sigma P7539), and 2 mM L-glumtamine (Sigma G7513), and allowed to adhere overnight at 37° C. in 5% CO2. Compounds are then added to the cell media in 2-fold serial dilutions from a top final concentration of 10 μM as a full matrix of concentrations in a final cell volume of 200 μl, and the cells are then incubated at 37° C. in 5% CO2. After 96 h, 40 μl of MTS reagent (Promega G358a) is added to each well and the cells are incubated for lh at 37° C. in 5% CO2. Finally, absorbance is measured at 490 nm using a SpectraMax Plus 384 reader (Molecular Devices) and IC50 values can be calculated.

full-length ATR = target: T2, full-length ATR (Homo sapiens, UniProt Q13535); test: ATR inhibition assay, radioactive-phosphate incorporation; format: biochemical; settings: Ki(app); 5 nM full-length ATR, 10 μM ATP, 800 μM target peptide, 25° C.
T2 construct: Assays were carried out at 25° C. in the presence of 5 nM full-length ATR
Method: Compounds were screened for their ability to inhibit ATR kinase using a radioactive-phosphate incorporation assay. Assays were carried out in a mixture of 50 mM Tris/HCl (pH 7.5), 10 mM MgCl2 and 1 mM DTT. Final substrate concentrations were 10 μM [γ-33P]ATP (3 mCi 33P ATP/mmol ATP, Perkin Elmer) and 800 μM target peptide (ASELPASQPQPFSAKKK (SEQ. ID NO: 1)).
Assays were carried out at 25° C. in the presence of 5 nM full-length ATR. An assay stock buffer solution was prepared containing all of the reagents listed above, with the exception of ATP and the test compound of interest. 13.5 μL of the stock solution was placed in a 96 well plate followed by addition of 2 μL of DMSO stock containing serial dilutions of the test compound (typically starting from a final concentration of 15 μM 3-fold serial dilutions) in duplicate (final DMSO concentration 7%). The plate was pre-incubated for 10 minutes at 25° C. and the reaction initiated by addition of 15 μL [γ-33P]ATP (final concentration 10 μM).
The reaction was stopped after […] by the addition of 30 μL 0.1M phosphoric acid containing 2 mM ATP. A multiscreen phosphocellulose filter 96-well plate (Millipore, Cat no. MAPHN0B50) was pretreated with 100 μL 0.2M phosphoric acid prior to the addition of 45 μL of the stopped assay mixture. The plate was washed with 5×200 μL 0.2M phosphoric acid. After drying, 100 μL Optiphase ‘SuperMix’ liquid scintillation cocktail (Perkin Elmer) was added to the well prior to scintillation counting (1450 Microbeta Liquid Scintillation Counter, Wallac).
After removing mean background values for all of the data points, Ki(app) data were calculated from non-linear regression analysis of the initial rate data using the Prism software package (GraphPad Prism version 3.0cx for Macintosh, GraphPad Software, San Diego, Calif., USA).

[2] = test system: HCT116 colorectal cancer cells; test: Cisplatin sensitization assay, 96 h cell viability (MTS); format: cell-based; settings: concentration of compound required to reduce the IC50 of Cisplatin alone by at least 3-fold; HCT116, 96 h MTS
Method: Compounds can be screened for their ability to sensitize HCT116 colorectal cancer cells to Cisplatin using a 96 h cell viability (MTS) assay. […] Compounds and Cisplatin are then both added simultaneously to the cell media in 2-fold serial dilutions from a top final concentration of 10 μM as a full matrix of concentrations in a final cell volume of 200 μl and the cells are then incubated at 37° C. in 5% CO2. After 96 h, 40 μl of MTS reagent (Promega G358a) is added to each well and the cells are incubated for lh at 37° C. in 5% CO2. Finally, absorbance is measured at 490 nm using a SpectraMax Plus 384 reader (Molecular Devices) and the concentration of compound required to reduce the IC50 of Cisplatin alone by at least 3-fold (to 1 decimal place) can be reported.

T1 sequence (Q13535 whole entry): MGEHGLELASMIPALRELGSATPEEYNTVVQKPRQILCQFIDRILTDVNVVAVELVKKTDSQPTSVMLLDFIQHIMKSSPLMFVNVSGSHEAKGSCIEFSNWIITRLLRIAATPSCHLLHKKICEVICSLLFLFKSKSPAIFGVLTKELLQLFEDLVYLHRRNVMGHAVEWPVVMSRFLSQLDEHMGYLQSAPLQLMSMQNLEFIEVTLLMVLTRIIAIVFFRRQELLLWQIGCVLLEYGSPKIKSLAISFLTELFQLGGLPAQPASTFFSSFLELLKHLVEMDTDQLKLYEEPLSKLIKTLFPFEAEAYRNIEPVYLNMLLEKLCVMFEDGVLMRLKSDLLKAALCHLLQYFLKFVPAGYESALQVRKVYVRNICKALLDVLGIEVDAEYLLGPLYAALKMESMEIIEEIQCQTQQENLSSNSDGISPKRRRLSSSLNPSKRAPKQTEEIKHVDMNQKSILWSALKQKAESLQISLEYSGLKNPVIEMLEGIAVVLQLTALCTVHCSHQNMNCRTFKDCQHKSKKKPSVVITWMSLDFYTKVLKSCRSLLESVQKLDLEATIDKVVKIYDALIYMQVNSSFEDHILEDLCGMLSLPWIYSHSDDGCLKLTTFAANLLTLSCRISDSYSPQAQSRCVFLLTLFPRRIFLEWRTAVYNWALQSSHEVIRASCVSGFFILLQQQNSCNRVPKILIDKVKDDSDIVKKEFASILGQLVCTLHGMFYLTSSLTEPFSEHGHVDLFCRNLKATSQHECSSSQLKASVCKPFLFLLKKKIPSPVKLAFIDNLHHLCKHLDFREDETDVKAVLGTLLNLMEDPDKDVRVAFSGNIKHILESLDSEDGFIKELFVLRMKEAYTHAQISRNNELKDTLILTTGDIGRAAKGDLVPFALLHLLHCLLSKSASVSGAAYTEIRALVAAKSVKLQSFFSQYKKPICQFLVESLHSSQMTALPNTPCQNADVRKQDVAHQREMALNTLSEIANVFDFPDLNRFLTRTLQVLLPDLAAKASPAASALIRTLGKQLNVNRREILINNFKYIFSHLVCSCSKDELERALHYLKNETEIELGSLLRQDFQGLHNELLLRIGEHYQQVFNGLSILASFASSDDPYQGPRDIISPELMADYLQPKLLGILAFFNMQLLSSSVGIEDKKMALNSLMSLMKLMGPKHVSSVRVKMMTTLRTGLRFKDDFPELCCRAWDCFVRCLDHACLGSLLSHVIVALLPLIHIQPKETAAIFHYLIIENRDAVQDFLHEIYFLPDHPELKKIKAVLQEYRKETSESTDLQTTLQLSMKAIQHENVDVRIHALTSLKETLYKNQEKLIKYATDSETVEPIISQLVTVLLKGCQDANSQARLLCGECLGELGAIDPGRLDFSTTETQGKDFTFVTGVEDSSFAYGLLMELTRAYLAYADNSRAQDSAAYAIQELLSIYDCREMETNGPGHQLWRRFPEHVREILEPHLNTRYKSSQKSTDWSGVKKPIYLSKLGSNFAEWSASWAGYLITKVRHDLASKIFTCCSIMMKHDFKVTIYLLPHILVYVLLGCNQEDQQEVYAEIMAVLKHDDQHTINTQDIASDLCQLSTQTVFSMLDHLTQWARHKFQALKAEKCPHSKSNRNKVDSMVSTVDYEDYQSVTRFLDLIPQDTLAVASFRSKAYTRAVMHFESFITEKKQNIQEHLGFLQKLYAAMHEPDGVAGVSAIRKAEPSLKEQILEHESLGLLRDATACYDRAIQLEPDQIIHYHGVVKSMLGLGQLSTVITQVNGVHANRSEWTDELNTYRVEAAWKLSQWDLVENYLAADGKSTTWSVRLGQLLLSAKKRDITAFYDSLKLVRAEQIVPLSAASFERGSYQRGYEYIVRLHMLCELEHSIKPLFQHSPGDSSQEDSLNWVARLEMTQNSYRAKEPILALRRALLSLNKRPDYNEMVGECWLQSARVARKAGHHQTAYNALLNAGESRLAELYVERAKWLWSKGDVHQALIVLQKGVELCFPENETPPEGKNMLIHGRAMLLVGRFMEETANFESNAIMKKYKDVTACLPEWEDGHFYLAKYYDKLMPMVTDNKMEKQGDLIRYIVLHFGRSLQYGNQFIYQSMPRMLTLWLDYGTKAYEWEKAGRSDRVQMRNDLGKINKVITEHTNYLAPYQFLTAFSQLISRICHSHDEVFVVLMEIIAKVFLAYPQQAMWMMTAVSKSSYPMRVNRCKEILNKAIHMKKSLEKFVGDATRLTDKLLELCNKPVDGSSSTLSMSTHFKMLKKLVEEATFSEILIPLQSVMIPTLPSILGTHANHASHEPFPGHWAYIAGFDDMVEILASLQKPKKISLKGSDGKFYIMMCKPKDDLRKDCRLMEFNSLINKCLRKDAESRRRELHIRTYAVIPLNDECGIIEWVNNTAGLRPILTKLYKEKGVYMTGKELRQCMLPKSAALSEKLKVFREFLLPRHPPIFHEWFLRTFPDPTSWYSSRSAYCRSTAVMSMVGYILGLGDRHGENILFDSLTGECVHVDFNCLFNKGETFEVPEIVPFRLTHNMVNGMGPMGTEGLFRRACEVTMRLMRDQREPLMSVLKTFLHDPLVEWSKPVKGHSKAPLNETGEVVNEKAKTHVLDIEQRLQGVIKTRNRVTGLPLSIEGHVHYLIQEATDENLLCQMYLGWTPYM
T1 sequence (Q8WXE1 whole entry partner): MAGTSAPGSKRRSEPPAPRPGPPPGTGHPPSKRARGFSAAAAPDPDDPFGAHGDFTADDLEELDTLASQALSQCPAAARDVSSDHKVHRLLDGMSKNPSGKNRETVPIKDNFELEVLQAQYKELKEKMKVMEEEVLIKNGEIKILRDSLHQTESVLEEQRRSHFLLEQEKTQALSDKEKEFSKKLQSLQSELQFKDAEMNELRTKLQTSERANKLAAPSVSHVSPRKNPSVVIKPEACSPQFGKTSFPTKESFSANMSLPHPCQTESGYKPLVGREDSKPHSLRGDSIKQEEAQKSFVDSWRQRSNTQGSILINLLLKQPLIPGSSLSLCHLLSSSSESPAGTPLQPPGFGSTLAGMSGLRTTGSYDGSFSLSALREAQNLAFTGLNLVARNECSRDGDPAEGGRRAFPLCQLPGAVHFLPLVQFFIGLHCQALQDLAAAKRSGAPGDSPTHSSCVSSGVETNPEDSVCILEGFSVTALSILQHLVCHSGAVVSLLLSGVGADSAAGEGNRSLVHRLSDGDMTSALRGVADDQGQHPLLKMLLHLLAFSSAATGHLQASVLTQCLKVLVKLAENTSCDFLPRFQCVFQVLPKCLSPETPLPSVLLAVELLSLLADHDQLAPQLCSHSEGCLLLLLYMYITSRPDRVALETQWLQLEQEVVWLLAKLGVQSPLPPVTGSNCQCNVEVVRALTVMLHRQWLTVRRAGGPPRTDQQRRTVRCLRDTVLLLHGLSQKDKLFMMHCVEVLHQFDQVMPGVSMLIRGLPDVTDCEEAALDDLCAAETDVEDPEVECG
T2 sequence (Q13535 whole entry): as the sequence (Q13535 whole entry) above

Row | SMILES | IC50 (intracellular ATR) [nM] | IC50 [1] [nM] | Ki (full-length ATR) [nM] | Cisplatin sensitization [2] [nM]
1 | CC(C)S(=O)(=O)c1ccc(-c2cnc(N)c(-c3cc(-c4ccc(NCC5CCCCN5)cc4)no3)n2)cc1 (stereo not drawn) [Compound I-1, 5-(4-isopropylsulfonylphenyl)-3-[3-[4-(2-piperidylmethylamino)phenyl]isoxazol-5-yl]pyrazin-2-amine] | 62 | 210 | 0.635 | 156
2 | CC(C)S(=O)(=O)c1ccc(-c2cnc(N)c(-c3cc(-c4ccc(NC[C@H]5CCCN5)cc4)no3)n2)cc1 [Compound I-4, (R)-5-(4-(isopropylsulfonyl)phenyl)-3-(3-(4-((pyrrolidin-2-ylmethyl)amino)phenyl)isoxazol-5-yl)pyrazin-2-amine] | 13 | 52 | 0.35 | 39
3 | CC(C)S(=O)(=O)c1ccc(-c2cnc(N)c(-c3cc(-c4ccc(NCC5CCCN5)cc4)no3)n2)cc1 (stereo not drawn) [Compound I-5, 5-(4-isopropylsulfonylphenyl)-3-[3-[4-(pyrrolidin-2-ylmethylamino)phenyl]isoxazol-5-yl]pyrazin-2-amine] | < 10 | 26 | < 0.1 | 20

Continued by falling IC50 (intracellular ATR), values first:

Row | IC50 (intracellular ATR) [nM] | IC50 [1] [nM] | Ki (full-length ATR) [nM] | SMILES | Cisplatin sensitization [2] [nM]
4 | 260 | 720 | 0.405 | CC(C)S(=O)(=O)c1ccc(-c2cnc(N)c(-c3cc(-c4ccc(NCCN(C)C)cc4)no3)n2)cc1 [Compound I-6, N-(4-(5-(3-amino-6-(4-(isopropylsulfonyl)phenyl)pyrazin-2-yl)isoxazol-3-yl)phenyl)-N,N-dimethylethane-1,2-diamine] | 78
5 | 40 | 140 | 0.6 | CC(C)S(=O)(=O)c1ccc(-c2cnc(N)c(-c3cc(-c4ccc(NCC5CCN5)cc4)no3)n2)cc1 (stereo not drawn) [Compound I-2, 3-[3-[4-(azetidin-2-ylmethylamino)phenyl]isoxazol-5-yl]-5-(4-isopropylsulfonylphenyl)pyrazin-2-amine] | 78
6 | 14 | 83 | 0.49 | CC(C)S(=O)(=O)c1ccc(-c2cnc(N)c(-c3cc(-c4ccc(NC[C@@H]5CCCN5)cc4)no3)n2)cc1 [Compound I-3, (S)-5-(4-(isopropylsulfonyl)phenyl)-3-(3-(4-((pyrrolidin-2-ylmethyl)amino)phenyl)isoxazol-5-yl)pyrazin-2-amine] | 20
